What was measured:
VTII and Bcl-2 = test: Far Western blotting of VTII/Bcl-2 complex formation (B10 cell extract, biotinylated VTII); type: binding, human; conditions: extract of Bcl-2-expressing B10 cells, biotinylated VTII, in the presence of NWGRI
B10 cells = type: cell-based, human

Substance: NWGRI
- complex formation of VTII and Bcl-2 (VTII and Bcl-2): interrupted the complex formation of VTII and Bcl-2 in a dose dependent manner
- induction of apoptotic cell death by VTII (B10 cells): suppressed

From US20040121398A1 (priority 2000, published 2004)
